Test results as given in patent US7071194B2, “Method for improving respiratory function and inhibiting muscular degeneration” (priority 2000, dated 2006).

Assays:
mdx mutant mice = details: clenbuterol orally 1.0–1.5 mg/kg body weight/day, one year, cited from earlier work
T8 SCI rats = assay: Respiratory function by head-out plethysmograph in conscious rats after T8 contusion SCI; type: in vivo, rat; details: for Te (expiratory time) / Ti (inspiratory time) / Tv (tidal volume) / Ve (minute ventilation): 24 hours after SCI
Procedure: Female Sprague-Dawley rats (250–280 g and 360–390 g; Taconic, Germantown, N.Y.) were anesthetized with 4% chloral hydrate (360 mg/kg, i.p.). An incomplete spinal courd contusion injury was produced at T8 with a weight drop device (10 g×2.5 cm) as previously described (Wrathall et al., 1985). After SCI, manual expression of bladders was performed twice daily until a reflex bladder was established. Animal care also included housing the rats in pairs to reduce isolation-induced stress, maintaining ambient temperature at 22–25° C., and using highly absorbent bedding. No prophylactic antibiotics were given.
Experiments were conducted in unanesthetized, awake, spontaneously breathing rats at 24 hours prior to SCI, at 24 hours p.i. and weekly afterwards at 1,2,3, and 4 weeks p.i. (1) Acclimatization of the Animals. […] Animals were placed in the body cylinder of the plethysmograph (FIG. 1a) for 60 minutes per day for at least 5 days. […] (2) Non-Invasive Measurements of Respiratory Rate, Tidal Volume and Minute Ventilation. Non-invasive measurements of respiratory function in conscious rats were performed with a restrained head-out plethysmograph specially designed for rodents (BUXCO Electronics, Inc., Sharon, Conn.) (FIG. 1a). The plethymograph apparatus has a neck seal that prevents leakage of air from between the animal's neck and the plethymograph opening. Displacement of the thoracic wall produced by the animal's respiratory movements causes changes in the cylinder pressure, which results in air flowing across a pneumotachograph located on the wall of the cylinder. The pressure drop across the pneumotachograph is measured with a pressure transducer and is proportional to the flow. This signal is amplified and integrated into volume. From measurements of volume and flow, a computer and appropriate software provides respiratory parameters, such as respiratory rate (f), tidal volume (Vt), minute ventilation (Ve), peak inspiratory flow, peak expiratory flow, inspiratory time (Ti), expiratory time (Te), and accumulated volume. An additional opening on the wall of the box allows volume calibration by injecting and removing air from the box with a calibrated syringe.
The noise level in the laboratory was kept to a minimum in order not to startle the animals. Further, the animals were visually isolated from the investigators by means of a chamber made of an opaque material that surrounded and covered the front-end of the body plethysmograph (FIG. 1b). Baseline recordings lasted for 4 minutes. (3) Measurement of Ventilatory Response to Carbon Dioxide. For measurement of the ventilatory response to CO2, animals were exposed to air containing 7% CO2. The animals breathed from a funnel fixed in the front wall of a chamber made of an opaque material (FIG. 1b). The animals were exposed to the gas mixture containing 7% CO2 (mixed with 60% O2 and 33% N2) for 5 minutes with recording of respiratory activity for another 2 minutes (a total recording duration of 7 minutes).
The 5HT1A receptor antagonist, p-MPPI (RBI, Natick, Mass.) was also dissolved in 0.9% saline and given i.p. in a dose of 3 mg/kg (pH 7.4 and final volume of 0.5 ml). […] Vehicle solution (VEH) was 0.9% saline and also injected at i.p. (pH 7.4; volume: 0.5 ml/rat).
Baseline respiratory function was measured under room air ventilation and after the animal was stabilized inside a boy cylinder (FIGS. 1a and b) for 30 minutes at each time point prior to SCI and after injury. Immediately following the evaluation of baseline respiration, the animals were let to breathe air containing 7% CO2 for 7 minutes to monitor their ventilatory response to CO2 stimulus (Teng et al., 1998a and 1999).

SOD1 mice = assay: Respiratory function (tidal volume, respiratory rate) in SOD1 mice, model of familial ALS; type: in vivo, mouse
Procedure: SOD1 mice are mutant mice which provide an animal model for an inherited form of ALS which is more commonly referred to as familial ALS. […] These parameters of respiratory function were subsequently reevaluated 2 minutes after drug treatment.

child with apneusis = details: buspirone orally 8 mg/day; cited from earlier work
[1] = 7% CO2 at 15 & 16 min after buspirone 1.5 mg/kg i.p.
[2] = baseline (room air), 3 & 4 min post buspirone 1.5 mg/kg i.p.
[3] = baseline (room air), 8 & 9 min post buspirone 1.5 mg/kg i.p.
[4] = 24 hours p.i., buspirone 1.5 mg/kg i.p.
[5] = buspirone 3.0 mg/kg i.p. or s.c. (FIGS. 6 and 7)

## CC(C)(C)NCC(O)c1cc(Cl)c(N)c(Cl)c1 (centres unmarked) [clenbuterol]
Mdx mutant mice; mdx mice
  increase in myosin concentration of mdx diaphram (DIA): 22%
Mdx mutant mice; normal control and mdx mice
  soleus (SOL) weight and SOL muscle weight to body weight ratio: significantly increase

## O=C1CC2(CCCC2)CC(=O)N1CCCCN1CCN(c2ncccn2)CC1 [buspirone]
T8 SCI rats; [1]
  Te (expiratory time): 0.21 ± 0.03
  Ti (inspiratory time): 0.17 ± 0.01
  Tv (tidal volume): 1.46 ± 0.14 mL
  Ve (minute ventilation): 240.9 ± 44.8 mL/min
T8 SCI rats; [2]
  Te (expiratory time): 0.27 ± 0.03↑
  Ti (inspiratory time): 0.19 ± 0.01
  Tv (tidal volume): 1.17 ± 0.13 mL
  Ve (minute ventilation): 171.3 ± 30.1 mL/min
T8 SCI rats; [3]
  Te (expiratory time): 0.40 ± 0.05
  Ti (inspiratory time): 0.20 ± 0.03
  Ve (minute ventilation): 101.8 ± 11.4 mL/min
T8 SCI rats; [4]
  SCI reduced Vt values after treatment: levels indiscenible from pre-injury readings
  duration of effect on Vt (printed Bt): up to 9 minutes
  effect on abnormal respiratory function resulting from T8 SCI: reversed the abnormal respiratory function
SOD1 mice; [5]
  respiratory frequency: reduces
  tidal volume: significantly increases
SOD1 mice; buspirone 3.0 mg/kg subcutaneous, 2 minutes after treatment
  respiratory function (tidal volume, respiratory rate): significantly improved
Child with apneusis
  apneusis: reverses apneusis
